Measured values published in PMC5844530, “Fosmetpantotenate (RE-024), a phosphopantothenate replacement therapy for pantothenate kinase-associated neurodegeneration: Mechanism of action and efficacy in nonclinical models” (PLoS ONE, 2018).
Where “and” joins values, the source holds several entries; their conditions need not be identical. Equal values may be shown once.

Key:
[1] = Pharmacokinetics in whole blood, cynomolgus monkeys; details: for % Parent AUCAll: Cynomolgus monkey, 300 mg/kg PO, metabolite AUCall/Parent AUCall x 100
Protocol: (§1) The whole blood samples (0.5 mL) were collected into syringes that were prefilled with 2.5 mL of ice-cold 0.1% formic acid in acetonitrile. The volume ratio of the whole blood to 0.1% formic acid in acetonitrile was 1/5 (v/v). Samples were frozen (-70°C) until analyzed by LC-MS/MS.
(§2) Standard curves and quality control (QC) samples were prepared fresh on the day of analysis by serial dilution of the standard mixture in quenched whole blood (1 part of blood to 5 parts of 0.1% formic acid in acetonitrile) and centrifuged. […] The frozen study samples were thawed in an ice/water bath and centrifuged. Supernatant (50 μL) from standards, QC samples, and study samples was transferred to a 96-well plate and dried completely under nitrogen. The dried residues were reconstituted with 100 μL of 0.1% formic acid in water containing internal standard (5 ng/mL of ^15N/^13C3-RE-024-02) and analyzed by LC-MS/MS.
(§3) LC-MS/MS analysis for blood pharmacokinetic samples: Samples were analyzed using an Agilent 1100 binary pump (Agilent Technologies, Santa Clara, CA, USA), connected to an AB Sciex API 6500 mass spectrometer (SCIEX, Framingham, MA, USA). An electrospray ionization source was used, scanning in the positive mode. […] The chromatography column was a Varian Metasil AQ 120–5 C18 column, 5 μm, 50 x 2.00 mm (Part No. A0530050X020) at ambient temperature, with a 0.5 mL/min flow rate and a 20 μL injection volume. Mobile phase (A) consisted of 0.1% formic acid in water; while mobile phase (B) consisted of 0.1% formic acid in acetonitrile:water (9:1, v/v).
(§4) Quantitation of in vivo samples: Peak areas were integrated using Analyst software (AB Sciex, Concord, Ontario, Canada). […] Calibration standards (at a minimum 7 per curve) were fit by linear regression with (1/x^2) weighting. QC samples were used (triplicate) at 3 concentrations for all tandem mass spectrometry (MS/MS) runs.
(§5) Pharmacokinetic calculations: PK analysis was performed using Phoenix WinNonlin®, Build 6.3.0.395 (Certara, Princeton, NJ, USA) using a non-compartmental model (PO dose = model 200 for extravascular dosing). […] Post-dose concentrations below the limit of quantitation (BLQ) were omitted from calculation.

[2] = Pharmacokinetics in whole blood, Sprague-Dawley rats; details: Sprague-Dawley rat, metabolite AUCall/Parent AUCall x 100
Protocol: as §1, §2, §3, §4, §5

[3] = Pharmacokinetics in whole blood, CD-1 mice; details: for % Parent AUCAll: CD1 mouse, metabolite AUCall/Parent AUCall x 100; for Whole Blood Conc. of compound 3: CD-1 mice; for concentration at 2 h / concentration at 8 h / concentration at 0.5 h: male, CD-1, mouse, whole blood, po, Whole Blood Conc. of compound 3, CD-1 mice
Protocol: as §1, §2, §3, §4, §5

## CC1(C)COP(=O)(O)O[C@H]1C(=O)NCCC(=O)O [Compound 3]
[1]
  % Parent AUCAll: 9%
[1]; cynomolgus monkey, whole blood, po, 300 mg/kg, Concentration of compound 3 in whole blood, cynomolgus monkeys, single oral 300 mg/kg fosmetpantotenate, 0.25 hr, LLOQ 2.13 nM
  concentration at 0.25 h: 5.33 nM
[1]; cynomolgus monkey, whole blood, po, 300 mg/kg, Concentration of compound 3 in whole blood, cynomolgus monkeys, single oral 300 mg/kg fosmetpantotenate, 4 hr, LLOQ 2.13 nM
  concentration at 4 h: 432 nM
[1]; cynomolgus monkey, whole blood, po, 300 mg/kg, Concentration of compound 3 in whole blood, cynomolgus monkeys, single oral 300 mg/kg fosmetpantotenate, 8 hr, LLOQ 2.13 nM
  concentration at 8 h: 619 nM
[1]; cynomolgus monkeys, single oral 300 mg/kg fosmetpantotenate, 0.25 hr, LLOQ 2.13 nM, 300 mg/kg
  Concentration of compound 3 in whole blood: 3.41 nM
[1]; cynomolgus monkeys, single oral 300 mg/kg fosmetpantotenate, 4 hr, LLOQ 2.13 nM, 300 mg/kg
  Concentration of compound 3 in whole blood: 654.2 nM
[1]; cynomolgus monkeys, single oral 300 mg/kg fosmetpantotenate, 8 hr, LLOQ 2.13 nM, 300 mg/kg
  Concentration of compound 3 in whole blood: 508.25 nM
[2]; 300 mg/kg PO
  % Parent AUCAll: 4,130%
[2]; 700 mg/kg PO
  % Parent AUCAll: 209%
[3]; 100 mg/kg PO
  % Parent AUCAll: 8,900%
[3]; 300 mg/kg PO
  % Parent AUCAll: 18,900%
[3]; 700 mg/kg PO
  % Parent AUCAll: 1,990%
[3]; single 100 mg/kg RE-024-02 PO, 4 hr, LLOQ 6 ng/mL
  Whole Blood Conc. of compound 3: BQL
[3]; single 100 mg/kg RE-024-02 PO, 4 hr, LLOQ 21.3 nM
  Whole Blood Conc. of compound 3: BQL
[3]; single 700 mg/kg RE-024-02 PO, 0.5 hr, LLOQ 6 ng/mL, 700 mg/kg
  Whole Blood Conc. of compound 3: 126 ng/mL and 156 ng/mL and 189 ng/mL
[3]; single 700 mg/kg RE-024-02 PO, 0.5 hr, LLOQ 21.3 nM, 700 mg/kg
  Whole Blood Conc. of compound 3: 448.1 nM and 554.8 nM and 672.1 nM
[3]; single 700 mg/kg RE-024-02 PO, 2 hr, LLOQ 6 ng/mL, 700 mg/kg
  Whole Blood Conc. of compound 3: 67.2 ng/mL and 69.6 ng/mL and 72 ng/mL
[3]; single 700 mg/kg RE-024-02 PO, 2 hr, LLOQ 21.3 nM, 700 mg/kg
  Whole Blood Conc. of compound 3: 239 nM and 247.5 nM and 256 nM
[3]; 100 mg/kg, single 100 mg/kg RE-024-02 PO, 2 hr, LLOQ 6 ng/mL
  concentration at 2 h: 6.7 ng/mL
[3]; 100 mg/kg, single 100 mg/kg RE-024-02 PO, 2 hr, LLOQ 21.3 nM
  concentration at 2 h: 23.7 nM
[3]; 100 mg/kg, single 100 mg/kg RE-024-02 PO, LLOQ 6 ng/mL
  concentration at 8 h: 6.1 ng/mL
[3]; 100 mg/kg, single 100 mg/kg RE-024-02 PO, LLOQ 21.3 nM
  concentration at 8 h: 21.6 nM
[3]; 300 mg/kg, single 300 mg/kg RE-024-02 PO, LLOQ 6 ng/mL
  concentration at 8 h: 7.6 ng/mL
[3]; 300 mg/kg, single 300 mg/kg RE-024-02 PO, LLOQ 21.3 nM
  concentration at 8 h: 26.9 nM
[3]; 700 mg/kg, single 700 mg/kg RE-024-02 PO, 0.5 hr, LLOQ 6 ng/mL
  concentration at 0.5 h: 162 ng/mL
[3]; 700 mg/kg, single 700 mg/kg RE-024-02 PO, 0.5 hr, LLOQ 21.3 nM
  concentration at 0.5 h: 576 nM
[3]; 700 mg/kg, single 700 mg/kg RE-024-02 PO, 2 hr, LLOQ 6 ng/mL
  concentration at 2 h: 48.2 ng/mL
[3]; 700 mg/kg, single 700 mg/kg RE-024-02 PO, 2 hr, LLOQ 21.3 nM
  concentration at 2 h: 172 nM

## COC(=O)[C@H](C)NP(=O)(OCC(C)(C)[C@@H](O)C(=O)NCCC(=O)O)Oc1ccccc1 (stereo partly shown) [Compound 4]
[1]
  % Parent AUCAll: 301%
[1]; cynomolgus monkey, in vivo, po, 300 mg/kg, Concentration of compound 4 in whole blood, cynomolgus monkeys, single oral 300 mg/kg fosmetpantotenate, 0.083 hr, sum of diastereomers, LLOQ 1.30 nM
  concentration at 0.083 h: 13.2 nM
[1]; cynomolgus monkey, in vivo, po, 300 mg/kg, Concentration of compound 4 in whole blood, cynomolgus monkeys, single oral 300 mg/kg fosmetpantotenate, 2 hr, sum of diastereomers, LLOQ 1.30 nM
  concentration at 2 h: 5070 nM
[1]; cynomolgus monkey, in vivo, po, 300 mg/kg, Concentration of compound 4 in whole blood, cynomolgus monkeys, single oral 300 mg/kg fosmetpantotenate, 4 hr, sum of diastereomers, LLOQ 1.30 nM
  concentration at 4 h: 665 nM
[1]; cynomolgus monkeys, single oral 300 mg/kg fosmetpantotenate, 0.083 hr, sum of diastereomers, LLOQ 1.30 nM, 300 mg/kg
  Concentration of compound 4 in whole blood: 8.08 nM
[1]; cynomolgus monkeys, single oral 300 mg/kg fosmetpantotenate, 2 hr, sum of diastereomers, LLOQ 1.30 nM, 300 mg/kg
  Concentration of compound 4 in whole blood: 5694.67 nM
[1]; cynomolgus monkeys, single oral 300 mg/kg fosmetpantotenate, 4 hr, sum of diastereomers, LLOQ 1.30 nM, 300 mg/kg
  Concentration of compound 4 in whole blood: 600.1 nM
[2]; 300 mg/kg PO
  % Parent AUCAll: 2,820%
[2]; 700 mg/kg PO
  % Parent AUCAll: 849%
[3]; 100 mg/kg PO
  % Parent AUCAll: 3,180%
[3]; 300 mg/kg PO
  % Parent AUCAll: 12,600%
[3]; 700 mg/kg PO
  % Parent AUCAll: 10,500%
